A short description of data set [1]: Oral bioavailability / pharmacokinetics in rats. The note with it: Sprague Dawley, rat, plasma, male rats. It is filed as in vivo. On the procedure: Following intravenous and oral administration, blood samples (ca .2 mL) were collected from the jugular vein. For IV group, blood samples were collected at .083, .25, .5, 1, 2, 4, 6, 8, 24 hours post-dose. For PO group, blood samples were collected at .25, .5, 1, 2, 4, 6, 8, 24 hours post-dose. Blood samples were collected into tubes containing the anticoagulant K2EDTA. Plasma samples were prepared by centrifugation and dispensed into 1.5 mL matrix tubes and stored in a freezer (−75 ± 1°C) prior to analysis.

Data set [2] has as its system dorsal root ganglion lipids. Description: Lipidomic analysis of terminal tissues, OIPN prevention study. The note with it: 25 mg/kg BID, versus vehicle, P = .03. It is filed as in vivo, male Sprague Dawley rats. On the procedure: Pain measurements were made on Days 5/6 (when neuropathy has normally developed) and at the end of the study. […] Terminal plasma samples were taken for bioanalysis and proteomics (Somalogic). Brain regions involved in pain processing, that is, prefrontal cortex (PFC), periaqueductal grey (PAG), whole spinal cords (SC), and L4-L6 dorsal root ganglia, were collected for lipidomic and genomic (Genewiz, China) analyses. Lipid extraction from tissues was performed as previously described.[40] Samples were flash frozen in liquid nitrogen, weighed and transferred to a centrifuge tube with HPLC-grade methanol (Thermo Fisher Scientific, Fair Lawn, NJ). Tubes were spiked with 500 picomoles d8AEA (Cayman Chemical, Ann Arbor, MI). Samples were left on ice for 2 hours, homogenised and centrifuged at 19,000 g for 20 minutes at 20°C. […] Elution samples were then analysed by HPLC MS/MS as previously described.[40] 20 μL samples were run on an Agilent XDB-C18 reversed-phase analytical column and analysed using an Applied Biosystems API 3,000 triple quadrupole mass spectrometer with electrospray ionisation (Foster City, CA). […] Concentrations in mols/gram were adjusted according to extraction efficiency, as determined by d8AEA recovery. For each individual lipid species, samples were unblinded, fold-change compared to the vehicle was calculated and significance calculated by t-test (P < .05 and P < .1) in R.

Data set [3] in a line: Prevention of OIPN, body weight. The note with it: 10 mg/kg BID, P < .05. It is filed as in vivo, male Sprague Dawley rats. The text has this:
(§1) Pain measurements were made on Days 5/6 (when neuropathy has normally developed) and at the end of the study. […] Terminal plasma samples were taken for bioanalysis and proteomics (Somalogic). Brain regions involved in pain processing, that is, prefrontal cortex (PFC), periaqueductal grey (PAG), whole spinal cords (SC), and L4-L6 dorsal root ganglia, were collected for lipidomic and genomic (Genewiz, China) analyses.

The nature of data set [4]: Terminal plasma levels, OIPN prevention study. It is filed as in vivo, male Sprague Dawley rats.
Source text: as §1

Data set [5] deals with PAG, DRG and PFC transcriptomes. The data set can be described thus: Transcriptomic analysis (RNA-seq) of terminal tissues, OIPN prevention study. It is filed as in vivo, male Sprague Dawley rats. The text has this:
Pain measurements were made on Days 5/6 (when neuropathy has normally developed) and at the end of the study. […] Terminal plasma samples were taken for bioanalysis and proteomics (Somalogic). Brain regions involved in pain processing, that is, prefrontal cortex (PFC), periaqueductal grey (PAG), whole spinal cords (SC), and L4-L6 dorsal root ganglia, were collected for lipidomic and genomic (Genewiz, China) analyses. Sequencing (Illumnia NovoSeq) was done at Genewiz (Shanghai, China). Sequence reads were trimmed using Trimmomatic (v.0.36). Reads were then aligned to the R. norvegicus Rnor6.0 reference genome (https://www.ncbi.nlm.nih.gov/assembly/GCF_000001895.5/) using the STAR aligner (v.2.5.2b) and unique gene hit counts were calculated using featureCounts from the Subread package (v.1.5.2). Differentially expressed genes were determined using limma 3.46.0. […] Visualisation was done using the EnhancedVolcano (1.7.10) package in R. Gene set enrichment analysis was carried out using the gprofiler2 package in R.

The test system of data set [6] is oxaliplatin-induced mechanical allodynia. The data set can be described thus: Acute dosing in established OIPN, von-Frey paw withdrawal threshold. It is filed as in vivo, male Sprague Dawley rats. The note with it: for PWT response versus vehicle: 2 hours. On the procedure: OXA (Tocris Bioscience) was dissolved in 5% dextrose (Sigma-Aldrich) and administered intraperitoneally (IP) at a volume of 6 mL/kg. […] AM251 (CB1 antagonist; Tocris Bioscience), AM630 (CB2 antagonist; Tocris Bioscience), GW6471 (PPARα antagonist; Tocris Bioscience), and AMG9810 (TRPV1 antagonist; Tocris Bioscience) were dissolved in saline with 4% dimethyl sulfoxide and delivered IP. Male Sprague Dawley rats (150–210 g) were housed in groups of 4 in intra-ventilated Perspex home cages. Humidity, temperature (21 ± 1 °C), and lighting (light-dark cycle of 12:12 hours) were controlled and maintained in the home cages, with food and water available ad libitum. Rats acclimatised to the home cages for at least 1 week. All experiments were carried out according to the Animals (Scientific Procedures) Act, 1986 (U.K. Government Home Office). The study was performed under the Home Office project licence number PP0847012. OIPN was established with a single dose of OXA (10 mg/kg, IP). […] Tactile allodynia (primary outcome measure) was assessed using paw withdrawal threshold (PWT), a measure of pain sensitivity. PWT was evaluated using calibrated von-Frey monofilaments (Touch-Test Sensory Evaluator; Scientific Marketing Associates) applied to the plantar surface of the left hind paw. PWT was determined by increasing and decreasing stimulus intensity and estimated using Dixon’s up-down method.[38],[39] To acquire baseline readings, pain behaviour was assessed on 3 consecutive days (Days −3, −2, −1). The mean of Day −2 and Day −1 was considered the healthy baseline (HBL) prior to OIPN induction. On Days 5 and 6 after OXA injection, thresholds were reassessed. The mean of Days 5 and 6 was considered the neuropathic baseline (NPB). Animals were then ranked and randomised (based on a Latin square design) to treatment groups according to the percentage change of the mean thresholds observed in the NPB compared to the HBL. NPB expressed as a percentage change from HBL was calculated as follows (HBL-NPB)/HBL*100. All behavioural assessment was done by an experimenter blinded to the identity of the treatment. Separate people were responsible for dosing and assessment/data analysis.

Molecule `COc1ccccc1[C@@H]1[C@H](C(=O)O)[C@@H](c2ccccc2OC)[C@H]1C(=O)OC1Cc2ccccc2C1` [ART26.12, (+)–3-Indan-2-yloxycarbonyl-2,4-bis(2-methoxyphenyl)cyclobutanecarboxylic acid] registered a clearance in data set [1] (IV 2 mg/kg) of 14 mL/min/kg. Also, the half-life is 2.6 h in data set [1] (IV 2 mg/kg) and 3.8 h in data set [1] (PO 300 mg/kg). The Vd in data set [1] (IV 2 mg/kg, read-out: volume of distribution) was found to be 1.3 L/kg. The Tmax in data set [1] (PO 10 mg/kg) is roughly 0.5 h; in data set [1] (PO 300 mg/kg), roughly 6.6 h. Also, the bioavailability in data set [1] (PO 300 mg/kg) came out at 163%; in data set [1] (single oral dose 10 mg/kg), 73%. Moreover, the “increase of N-docosahexaenoyl proline in DRG” value in data set [2] was found to be 9 fold. In data set [3], the “body weight on Day 5 versus Day 0” value was “significantly higher body weight than Day 0”. Also, the “mean plasma levels on Day 15” value in data set [4] (10 mg/kg BID) was 4.49 ± .99 µM; in data set [4] (25 mg/kg BID), 7.45 ± 1.58 µM. Moreover, in data set [5], the “transcriptomic changes in PFC” value is listed as “No significant changes”. Further, the “transcriptomic changes in DRG” value in data set [5] (P < .05, FC > 1.5) is given as “only glycine decarboxylase being significantly upregulated”. The “number of significantly different genes in PAG” value in data set [5] (P < .05, log2FC > .58) was 20 genes. For the same molecule, the “PWT response versus vehicle” value in data set [6] (100 mg/kg PO co-administered with AM630 (CB2 antagonist) 3 mg/kg IP), in data set [6] (100 mg/kg PO co-administered with AMG9810 (TRPV1 antagonist) 3 mg/kg IP) and in data set [6] (100 mg/kg PO co-administered with GW6471 (PPARα antagonist) 4 mg/kg IP) was “not significantly different to vehicle” in each case. In addition, the “PWT compared to ART26.12 alone” value in data set [6] (100 mg/kg PO co-treated with AM251 (CB1 antagonist) 3 mg/kg IP, P < .05) is listed as “significantly reduced PWT”. Also, in data set [6] (established OIPN, acute oral dosing), the “duration of acute attenuation of mechanical allodynia” value was “up to 8 hours”. Moreover, in data set [6] (established OIPN, 50 mg/kg (P < .05), 75 mg/kg (P < .05), 100 mg/kg (P < .001) PO, 30 minutes and 2 hours post-dose), the “PWT compared to vehicle” value is reported as “significantly increased PWT”. Further, in data set [6] (established OIPN, 100 mg/kg PO, at 30 minutes, 2, 3, 4 and 8 hours), the “PWT time course after single dose” value is “significantly increased”. For the same molecule, the “PWT compared to vehicle-alone” value in data set [6] (mechanism study, 100 mg/kg PO, 30 minutes or 2 hours, P < .01) is listed as “significantly increased PWT”.
